According to ChEMBL document CHEMBL3045892, “Synthesis and evaluation of in vitro antimicrobial activity of novel 2,3-disubstituted-4-thiazolidinones from fatty acid hydrazides” (2013):
≈ marks a conversion by molar mass, not a printed value.

Key:
Format in all cases: functional
[1] = tested on: Trichophyton mentagrophytes; assay: Antifungal activity against Trichophyton mentagrophytes after 48 hr
[2] = tested on: Pseudomonas aeruginosa; assay: Antibacterial activity against Pseudomonas aeruginosa ATCC 27853 after 24 hr by broth dilution method; conditions: ATCC 27853, 24 h
[3] = tested on: Candida albicans; assay: Antifungal activity against Candida albicans incubated for 48 hr followed by subculturing measured after 48 hr
[4] = tested on: Trichophyton mentagrophytes; assay: Antifungal activity against Trichophyton mentagrophytes by disk diffusion method
[5] = tested on: Streptococcus pyogenes; assay: Antibacterial activity against Streptococcus pyogenes after 24 hr by broth dilution method
[6] = tested on: Escherichia coli; assay: Antibacterial activity against Escherichia coli ATCC 25922 incubated for 24 hr followed by subculturing measured after 18 to 24 hr
[7] = tested on: Candida albicans; assay: Antifungal activity against Candida albicans by disk diffusion method
[8] = tested on: Aspergillus fumigatus; assay: Antifungal activity against Aspergillus fumigatus by disk diffusion method
[9] = tested on: Klebsiella pneumoniae; assay: Antibacterial activity against Klebsiella pneumoniae clinical isolate after 24 hr by broth dilution method
[10] = tested on: Pseudomonas aeruginosa; assay: Antibacterial activity against Pseudomonas aeruginosa ATCC 27853 incubated for 24 hr followed by subculturing measured after 18 to 24 hr
[11] = tested on: Candida albicans; assay: Antifungal activity against Candida albicans after 48 hr
[12] = tested on: Escherichia coli; assay: Antibacterial activity against Escherichia coli ATCC 25922 after 24 hr by broth dilution method; conditions: ATCC 25922, 24 h
[13] = tested on: Talaromyces marneffei; assay: Antifungal activity against Talaromyces marneffei by disk diffusion method
[14] = tested on: Escherichia coli; assay: Antibacterial activity against Escherichia coli ATCC 25922 after 24 hr by disk diffusion method
[15] = tested on: Talaromyces marneffei; assay: Antifungal activity against Talaromyces marneffei after 48 hr
[16] = tested on: Streptococcus pyogenes; assay: Antibacterial activity against Streptococcus pyogenes after 24 hr by disk diffusion method
[17] = tested on: Streptococcus pyogenes; assay: Antibacterial activity against Streptococcus pyogenes incubated for 24 hr followed by subculturing measured after 18 to 24 hr
[18] = tested on: Aspergillus fumigatus; assay: Antifungal activity against Aspergillus fumigatus after 48 hr
[19] = tested on: Talaromyces marneffei; assay: Antifungal activity against Talaromyces marneffei incubated for 48 hr followed by subculturing measured after 48 hr
[20] = tested on: Klebsiella pneumoniae; assay: Antibacterial activity against Klebsiella pneumoniae clinical isolate incubated for 24 hr followed by subculturing measured after 18 to 24 hr
[21] = tested on: Trichophyton mentagrophytes; assay: Antifungal activity against Trichophyton mentagrophytes incubated for 48 hr followed by subculturing measured after 48 hr
[22] = tested on: Pseudomonas aeruginosa; assay: Antibacterial activity against Pseudomonas aeruginosa ATCC 27853 after 24 hr by disk diffusion method
[23] = tested on: Klebsiella pneumoniae; assay: Antibacterial activity against Klebsiella pneumoniae clinical isolate after 24 hr by disk diffusion method
[24] = tested on: Aspergillus fumigatus; assay: Antifungal activity against Aspergillus fumigatus incubated for 48 hr followed by subculturing measured after 48 hr
[25] = tested on: Klebsiella pneumoniae; assay: Antibacterial activity against Klebsiella pneumoniae clinical isolate at 30 ug/disk after 24 hr by disk diffusion method; conditions: read-out: DIZ
[26] = tested on: Pseudomonas aeruginosa; assay: Antibacterial activity against Pseudomonas aeruginosa ATCC 27853 at 30 ug/disk after 24 hr by disk diffusion method; conditions: ATCC 27853, 24 h, read-out: DIZ
[27] = tested on: Escherichia coli; assay: Antibacterial activity against Escherichia coli ATCC 25922 at 30 uig/disk after 24 hr by disk diffusion method
[28] = tested on: Streptococcus pyogenes; assay: Antibacterial activity against Streptococcus pyogenes at 30 ug/disk after 24 hr by disk diffusion method; conditions: read-out: DIZ
[29] = tested on: Staphylococcus aureus; assay: Antibacterial activity against methicillin-resistant Staphylococcus aureus incubated for 24 hr followed by subculturing measured after 18 to 24 hr
[30] = tested on: Staphylococcus aureus; assay: Antibacterial activity against methicillin-resistant Staphylococcus aureus at 30 ug/disk after 24 hr by disk diffusion method; conditions: read-out: DIZ
[31] = tested on: Staphylococcus aureus; assay: Antibacterial activity against methicillin-resistant Staphylococcus aureus after 24 hr by broth dilution method

Structure (SMILES) | MIC [1] [µg/mL] | MIC [2] [µg/mL] | MFC [3] [µg/mL] | diameter of the inhibition zone (DIZ) [4] [mm] | MIC [5] [µg/mL] | MBC [6] [µg/mL] | diameter of the inhibition zone (DIZ) [7] [mm] | diameter of the inhibition zone (DIZ) [8] [mm] | MIC [9] [µg/mL] | MBC [10] [µg/mL] | MIC [11] [µg/mL] | MIC [12] [µg/mL] | diameter of the inhibition zone (DIZ) [13] [mm] | MIC [15] [µg/mL] | MBC [17] [µg/mL] | MIC [18] [µg/mL] | MFC [19] [µg/mL] | MBC [20] [µg/mL] | MFC [21] [µg/mL] | MFC [24] [µg/mL] | other results
CCCCCCCC/C=C\CCCCCCCC(=O)NN1C(=O)CSC1c1ccc(Cl)cc1 (stereo not given) | 25 (≈ 50.7 µM) | 50 (≈ 101 µM) | 50 (≈ 101 µM) | 17.6 | 25 (≈ 50.7 µM) | 100 (≈ 203 µM) | 24.2 | 21.4 | 25 (≈ 50.7 µM) | 100 (≈ 203 µM) | 12.5 (≈ 25.3 µM) | 25 (≈ 50.7 µM) | 14.1 | 25 (≈ 50.7 µM) | 100 (≈ 203 µM) | 12.5 (≈ 25.3 µM) | 50 (≈ 101 µM) | 50 (≈ 101 µM) | 50 (≈ 101 µM) | 50 (≈ 101 µM) | diameter of the inhibition zone (DIZ) [14]: 17.6 mm; diameter of the inhibition zone (DIZ) [16]: 18.1 mm; diameter of the inhibition zone (DIZ) [22]: 19.9 mm; diameter of the inhibition zone (DIZ) [23]: 17.1 mm
O=C(N[C@H](CO)[C@H](O)c1ccc([N+](=O)[O-])cc1)C(Cl)Cl [CHLORAMPHENICOL] | – | 12.5 (≈ 38.7 µM) | – | – | 12.5 (≈ 38.7 µM) | 12.5 (≈ 38.7 µM) | – | – | 6.25 (≈ 19.3 µM) | 25 (≈ 77.4 µM) | – | 6.25 (≈ 19.3 µM) | – | – | 12.5 (≈ 38.7 µM) | – | – | 25 (≈ 77.4 µM) | – | – | zone of inhibition at 30 µg/disc [25]: 19 mm; zone of inhibition at 30 µg/disc [26]: 32 mm; diameter of the inhibition zone (DIZ) [27]: 27 mm; zone of inhibition at 30 µg/disc [28]: 23 mm; MBC [29]: 12.5 µg/mL (≈ 38.7 µM); zone of inhibition at 30 µg/disc [30]: 22 mm; MIC [31]: 6.25 µg/mL (≈ 19.3 µM)
CCCCCCCCCCCCCCCC(=O)NN1C(=O)CSC1c1ccc(Cl)cc1 (stereo not given) | 6.25 (≈ 13.4 µM) | 12.5 (≈ 26.8 µM) | 12.5 (≈ 26.8 µM) | 19.5 | 12.5 (≈ 26.8 µM) | 25 (≈ 53.5 µM) | 27.3 | 22.6 | 12.5 (≈ 26.8 µM) | 25 (≈ 53.5 µM) | 6.25 (≈ 13.4 µM) | 12.5 (≈ 26.8 µM) | 15.2 | 12.5 (≈ 26.8 µM) | 25 (≈ 53.5 µM) | 6.25 (≈ 13.4 µM) | 25 (≈ 53.5 µM) | 50 (≈ 107 µM) | 25 (≈ 53.5 µM) | 25 (≈ 53.5 µM) | diameter of the inhibition zone (DIZ) [14]: 23.3 mm; diameter of the inhibition zone (DIZ) [16]: 20.4 mm; diameter of the inhibition zone (DIZ) [22]: 27.2 mm; diameter of the inhibition zone (DIZ) [23]: 21.4 mm
COC1=CC(=O)C[C@@H](C)[C@]12Oc1c(Cl)c(OC)cc(OC)c1C2=O [GRISEOFULVIN] | 6.25 (≈ 17.7 µM) | – | 25 (≈ 70.9 µM) | 24 | – | – | 30 | 27 | – | – | 6.25 (≈ 17.7 µM) | – | 20 | 12.5 (≈ 35.4 µM) | – | 12.5 (≈ 35.4 µM) | 25 (≈ 70.9 µM) | – | 25 (≈ 70.9 µM) | 12.5 (≈ 35.4 µM) | –
